Laboratory results: publication PMC4026310 (Drug Design, Development and Therapy, 2014)

Key:
liver = experiment: In situ liver perfusion; assay type: in vivo, Sprague Dawley rats; conditions: rat in situ liver perfusion, within 120 minutes
P-gp = conditions: patients receiving quinidine (P-gp inhibitor) treatment; cited from earlier work

SMILES: CO[C@H]1/C=C/O[C@@]2(C)Oc3c(C)c(O)c4c(O)c(c(/C=N/N5CCN(C)CC5)c(O)c4c3C2=O)NC(=O)/C(C)=C\C=C\[C@H](C)[C@H](O)[C@@H](C)[C@@H](O)[C@@H](C)[C@H](OC(C)=O)[C@@H]1C [rifampicin]
- Effect of inhibitor on the elimination rate of periplocin in the perfusate (liver): significantly reduced

SMILES: C=C[C@H]1C[N@@]2CC[C@H]1C[C@@H]2[C@@H](O)c1ccnc2ccc(OC)cc12 [quinidine]
- Patients showing an obvious increase in the blood concentration of digoxin (P-gp): 90%
